According to PubChem BioAssay AID2060908 (Molecular Pharmacology Branch, DTP, NCI, 2025):

System: 186277-243-T-J2-PDC complex spheroids, viability
Assay: Anticancer human tumor 186277-243-T-J2-PDC patient-derived colon adenocarcinoma cell line growth inhibition [RAS]
Conditions: for IC50: curve of first compound; for viability, T/C: stronger effect = lower value
Text: RAS pathway inhibitors in Combinations in Complex Spheroids
A high-throughput screen of multi-cell type tumor spheroids was designed to identify active combinations of RAS pathway inhibitors and targeted small molecules. Complex spheroids include a stromal component modeled by human endothelial cells (HUVEC) and fibroblasts modeled by human mesenchymal stem cells (MSCs). The concentration ranges selected for each drug and investigational agent were based upon clinically achievable concentrations if the clinical Cmax of the agent was known.
Compounds. The drugs and investigational agents: abemaciclib (NSC768073), cobimetinib (NSC768068), divarasib (GDC6063, NSC841802), docetaxel (NSC628503), GDC-1971 (RLY-1971, NSC841576), gemcitabine (NSC613327), inavolisib (NSC800729), ipatasertib (NSC767898), KB-0742 (NSC834161), MRTX-1133 (NSC836407), osimertinib (NSC779217), RMC-4630 (NSC839698), RMC-6236 (NSC851965), RMC-6291 (NSC852671), Ro-3306 (NSC812927), sapanisertib (NSC764658), SN-38 (NSC673596), staurosporine (NSC755774), SY5609 (NSC837396), and tovorafenib (DAY101, NSC766906), were obtained from the National Cancer Institute (NCI) Developmental Therapeutics Program Chemical Repository. The FDA-approved anticancer drug set is available from the NCI Developmental Therapeutics Program. […] The stock solutions were prepared in dimethyl sulfoxide (DMSO, Sigma-Aldrich, St. Louis, MO, cat. D2650) at 800-fold the tested concentration and stored at -70 degrees C prior to their use. All drugs and investigational agents were tested over a range starting from a high concentration at or near the clinical Cmax and decreasing in half-log increments. If the clinical Cmax for an agent had not been determined, the highest concentration tested was 10 microM.
Cell Culture. All cells were maintained in an incubator at 37 degrees C and 5% CO2 with 95% humidity. The PDC lines were cultured according to standard operating procedures established by the NCI PDMR. All PDCs were thawed and cultured in Matrigel-coated flasks prepared with a working solution of 1X Ham's F-12 nutrient mix, without supplementation (Invitrogen, Waltham, MA, cat. 11765054), 100 U/mL penicillin-streptomycin (Invitrogen, cat. 15140122), and 2.5% Matrigel (Corning Inc., Corning, NY, cat. 354248) for the first three passages. The 362531-283-R-J2-PDC and 782815-120-R-J1-PDC lines were cultured in 6C/Colon 1B media, which includes advanced DMEM/F-12 (Thermo Fisher Scientific, cat. 12634028), 10 mM HEPES (Thermo Fisher Scientific, cat. 15630080), 1X GlutaMAX supplement (Thermo Fisher Scientific, cat. 35050061), 0.1 mg/mL primocin (InvivoGen, San Diego, CA, cat. ant-pm-2), 10% defined fetal bovine serum, heat inactivated (HyClone Laboratories Inc., Logan, UT, cat. SH30070.03HI), 50% L-WRN conditioned media (ATCC, cat. CRL-3276), 1.25 mM N-Acetyl-L-cysteine (Sigma-Aldrich, cat. A9165), 10 mM nicotinamide (Sigma-Aldrich, cat. N0636), 1X B-27 supplement (Thermo Fisher Scientific, cat. 17504044), 1X N-2 supplement (Thermo Fisher Scientific, cat. 17502048), 50 ng/mL human EGF (Thermo Fisher Scientific, cat. PHG0311), and 10 microM Y-27632 dihydrochloride (Tocris Bioscience, cat. 1254). The K12877-001-R-J1-PDC line was cultured in 6I media, which includes all 6C/Colon 1B media plus 10 ng/mL human FGF-10 (PeproTech, cat. 100-26), 1 ng/mL human FGF-2 (PeproTech, cat. 100-18B), 1 µM prostaglandin E2 (Tocris Bioscience, cat. 2296), […] hydrocortisone (Sigma-Aldrich, cat. H4001), and […] bovine insulin (Sigma-Aldrich, cat. I6634). The K86415-001-R-J1-PDC line was cultured in 6D media, which includes all 6C/Colon 1B media components minus the L-WRN conditioned media. The 485176-168-R4-J1-PDC was cultured in PANC media, which includes all 6C/Colon 1B media plus 100 ng/mL human FGF-10 (PeproTech, cat. 100-26), 500 nM SB-431542 (Selleckchem, cat. S1067), and 10 nM gastrin (Tocris Bioscience, cat. 3006). […]

[1] = second compound 0.000949 µM, first compound 0.0316 µM
[2] = second compound 0.000949 µM, first compound 0.1 µM
[3] = second compound 0.000949 µM, first compound 0.316 µM
[4] = second compound 0.000949 µM, first compound 1 µM
[5] = second compound 0.000949 µM, first compound 3.16 µM
[6] = second compound 0.000949 µM, first compound 10 µM
[7] = second compound 0.003 µM, first compound 0.0316 µM
[8] = second compound 0.003 µM, first compound 0.1 µM
[9] = second compound 0.003 µM, first compound 0.316 µM
[10] = second compound 0.003 µM, first compound 1 µM
[11] = second compound 0.003 µM, first compound 3.16 µM
[12] = second compound 0.003 µM, first compound 10 µM
[13] = second compound 0.00949 µM, first compound 0.0316 µM
[14] = second compound 0.00949 µM, first compound 0.1 µM
[15] = second compound 0.00949 µM, first compound 0.316 µM
[16] = second compound 0.00949 µM, first compound 1 µM
[17] = second compound 0.00949 µM, first compound 3.16 µM
[18] = second compound 0.00949 µM, first compound 10 µM
[19] = second compound 0.03 µM, first compound 0.0316 µM
[20] = second compound 0.03 µM, first compound 0.1 µM
[21] = second compound 0.03 µM, first compound 0.316 µM
[22] = second compound 0.03 µM, first compound 1 µM
[23] = second compound 0.03 µM, first compound 3.16 µM
[24] = second compound 0.03 µM, first compound 10 µM
[25] = second compound 0.0949 µM, first compound 0.0316 µM
[26] = second compound 0.0949 µM, first compound 0.1 µM
[27] = second compound 0.0949 µM, first compound 0.316 µM
[28] = second compound 0.0949 µM, first compound 1 µM
[29] = second compound 0.0949 µM, first compound 3.16 µM
[30] = second compound 0.0949 µM, first compound 10 µM
[31] = second compound 0.3 µM, first compound 0.0316 µM
[32] = second compound 0.3 µM, first compound 0.1 µM
[33] = second compound 0.3 µM, first compound 0.316 µM
[34] = second compound 0.3 µM, first compound 1 µM
[35] = second compound 0.3 µM, first compound 3.16 µM
[36] = second compound 0.3 µM, first compound 10 µM
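Further: spheroids exposed to compounds for 7 days before viability read.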

Molecule `CC(=O)OC12COC1CC(O)C1(C)C(=O)C(O)C3=C(C)C(OC(=O)C(O)C(NC(=O)OC(C)(C)C)c4ccccc4)CC(O)(C(OC(=O)c4ccccc4)C21)C3(C)C` (stereo unspecified) + CCn1c(-c2cc(N3CCN(C)CC3)cnc2C(C)OC)c2c3cc(ccc31)-c1csc(n1)CC(NC(=O)C1CC1C)C(=O)N1CCCC(N1)C(=O)OCC(C)(C)C2 has an IC50 (second compound 0.000949 µM) of under 31.6 nM, an IC50 (second compound 0.003 µM) of under 31.6 nM and an IC50 (second compound 0.00949 µM) of under 31.6 nM. For the same molecule, the IC50 (second compound 0.03 µM) was under 31.6 nM, the IC50 (second compound 0.0949 µM) was under 31.6 nM and the IC50 (second compound 0.3 µM) was under 31.6 nM. For the same molecule, the viability, T/C [1] was 3.93%, the viability, T/C [2] was 3.88% and the viability, T/C [3] was 3.15%. It also gave a viability, T/C [4] of 3.35%, a viability, T/C [5] of 3.1% and a viability, T/C [6] of 2.87%. It also gave a viability, T/C [7] of 4.18%, a viability, T/C [8] of 3.41% and a viability, T/C [9] of 3.5%. The viability, T/C [10] was 3.44%, the viability, T/C [11] was 3.13% and the viability, T/C [12] was 3.15%. It also gave a viability, T/C [13] of 4.39%, a viability, T/C [14] of 3.52% and a viability, T/C [15] of 3.8%. For the same molecule, the viability, T/C [16] was 3.26%, the viability, T/C [17] was 3.42% and the viability, T/C [18] was 3.14%. It also gave a viability, T/C [19] of 3.02%, a viability, T/C [20] of 3.1% and a viability, T/C [21] of 2.91%. It also gave a viability, T/C [22] of 3.18%, a viability, T/C [23] of 2.79% and a viability, T/C [24] of 2.64%. It also gave a viability, T/C [25] of 2.92%, a viability, T/C [26] of 2.71% and a viability, T/C [27] of 3.02%. It also gave a viability, T/C [28] of 2.38%, a viability, T/C [29] of 2.59% and a viability, T/C [30] of 2.18%. It also gave a viability, T/C [31] of 2.53%, a viability, T/C [32] of 2.47% and a viability, T/C [33] of 2.58%. The viability, T/C [34] was 2.35%, the viability, T/C [35] was 2.5% and the viability, T/C [36] was 2.28%.
`Cc1nc(N2CCC3(CC2)COC(C)C3N)c(CO)nc1Sc1ccnc(N)c1Cl` (stereo unspecified) + CCn1c(-c2cccnc2C(C)OC)c2c3cc(ccc31)N1CCOC(CC(NC(=O)C(C(C)C)N(C)C(=O)C3(F)CCN(C(=O)C#CC(C)(C)N(C)C)CC3)C(=O)N3CCCC(N3)C(=O)OCC(C)(C)C2)C1 was tested, and the IC50 (second compound 0.000949 µM) was over 10000 nM, the IC50 (second compound 0.003 µM) was over 10000 nM and the IC50 (second compound 0.00949 µM) was over 10000 nM. It also gave an IC50 (second compound 0.03 µM) of over 10000 nM, an IC50 (second compound 0.0949 µM) of over 10000 nM and an IC50 (second compound 0.3 µM) of over 10000 nM. For the same molecule, the viability, T/C [1] was 88.9%, the viability, T/C [2] was 85.4% and the viability, T/C [3] was 111%. The viability, T/C [4] was 104%, the viability, T/C [5] was 141% and the viability, T/C [6] was 131%. For the same molecule, the viability, T/C [7] was 91.8%, the viability, T/C [8] was 100% and the viability, T/C [9] was 98.2%. It also gave a viability, T/C [10] of 114%, a viability, T/C [11] of 133% and a viability, T/C [12] of 130%. The viability, T/C [13] was 99.9%, the viability, T/C [14] was 130% and the viability, T/C [15] was 105%. For the same molecule, the viability, T/C [16] was 113%, the viability, T/C [17] was 132% and the viability, T/C [18] was 128%. The viability, T/C [19] was 92.3%, the viability, T/C [20] was 110% and the viability, T/C [21] was 108%. For the same molecule, the viability, T/C [22] was 126%, the viability, T/C [23] was 137% and the viability, T/C [24] was 116%. It also gave a viability, T/C [25] of 98.2%, a viability, T/C [26] of 123% and a viability, T/C [27] of 117%. For the same molecule, the viability, T/C [28] was 127%, the viability, T/C [29] was 137% and the viability, T/C [30] was 101%. It also gave a viability, T/C [31] of 122%, a viability, T/C [32] of 114% and a viability, T/C [33] of 107%. For the same molecule, the viability, T/C [34] was 92.9%, the viability, T/C [35] was 92.1% and the viability, T/C [36] was 62.8%.
Work on `CC(C)NCC(C(=O)N1CCN(c2ncnc3c2C(C)CC3O)CC1)c1ccc(Cl)cc1` (stereo unspecified) + CCn1c(-c2cc(N3CCN(C)CC3)cnc2C(C)OC)c2c3cc(ccc31)-c1csc(n1)CC(NC(=O)C1CC1C)C(=O)N1CCCC(N1)C(=O)OCC(C)(C)C2 yielded an IC50 (second compound 0.000949 µM) of 841 nM, an IC50 (second compound 0.003 µM) of 467 nM and an IC50 (second compound 0.00949 µM) of 69.2 nM. It also gave an IC50 (second compound 0.03 µM) of under 31.6 nM, an IC50 (second compound 0.0949 µM) of under 31.6 nM and an IC50 (second compound 0.3 µM) of under 31.6 nM. It also gave a viability, T/C [1] of 111%, a viability, T/C [2] of 101% and a viability, T/C [3] of 74.8%. It also gave a viability, T/C [4] of 42.8%, a viability, T/C [5] of 34.8% and a viability, T/C [6] of 20.4%. For the same molecule, the viability, T/C [7] was 98.6%, the viability, T/C [8] was 81.6% and the viability, T/C [9] was 58.8%. It also gave a viability, T/C [10] of 33.8%, a viability, T/C [11] of 16.1% and a viability, T/C [12] of 7.85%. It also gave a viability, T/C [13] of 51.6%, a viability, T/C [14] of 51% and a viability, T/C [15] of 28%. For the same molecule, the viability, T/C [16] was 11.4%, the viability, T/C [17] was 4.9% and the viability, T/C [18] was 1.96%. For the same molecule, the viability, T/C [19] was 13.1%, the viability, T/C [20] was 15.3% and the viability, T/C [21] was 7.36%. For the same molecule, the viability, T/C [22] was 3.74%, the viability, T/C [23] was 1.65% and the viability, T/C [24] was 0.66%. The viability, T/C [25] was 6.83%, the viability, T/C [26] was 6.82% and the viability, T/C [27] was 4.35%. For the same molecule, the viability, T/C [28] was 2.2%, the viability, T/C [29] was 1.09% and the viability, T/C [30] was 0.38%. It also gave a viability, T/C [31] of 6.18%, a viability, T/C [32] of 5.27% and a viability, T/C [33] of 3.57%. For the same molecule, the viability, T/C [34] was 1.82%, the viability, T/C [35] was 0.88% and the viability, T/C [36] was 0.37%.
